Columns and labels:
[1] = target: T1, human muscarinic acetylcholine M3 receptor (Homo sapiens, UniProt P20309); assay: Muscarinic 3 receptor binding assay ([3H]NMS competition, SPA), pIC50; conditions: [3H]NMS 0.1 nM, CHO-K1 cell membranes expressing human M3 receptor
T1 construct: expressed in transfected cells; host or cells: CHO-K1 (Chinese Hamster Ovary) cell membranes
In short: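 Competition of [3H]NMS (0.1 nM, quarter Kd) binding to CHO-K1 membranes expressing human M3, SPA format, in 20 mM HEPES pH 7.4, 5 mM MgCl2, 0.1% BSA, 1% DMSO. Incubated 16 h at room temperature; non-specific binding with 1 μM atropine; pIC50 from specific binding.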

[2] = target: T1, human muscarinic acetylcholine M3 receptor; assay: Muscarinic 3 receptor binding assay ([3H]NMS competition, SPA), single concentration 1 μM; conditions: 1 μM compound; % inhibition specific [3H]-NMS binding
In short: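 CHO-K1 membranes expressing human M3 on SPA beads, competition with 0.1 nM [3H]NMS (quarter Kd) in 20 mM HEPES pH 7.4, 5 mM MgCl2, 0.1% BSA, 1% DMSO; compound at 1 μM. 16 h at room temperature. Value is % inhibition of specific binding, non-specific defined with 1 μM atropine.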

Adrenergic β2 [3] = target: T2, Adrenergic β2 (Homo sapiens, UniProt P07550); assay: Adrenergic β2 mediated cAMP production in H292 cells (AlphaScreen), concentration response; assay type: cell-based; conditions: for EC50: 60 min, 300 μM rolipram, read-out: β2 pEC50 (converted); for β2 Intrinsic Activity: fraction relative to the maximum activity determined for formoterol
T2 construct: Adherent H292 cells are removed from tissue culture flasks by treatment with Accutase™ cell detachment solution; endogenous in cells; host or cells: H292 cells
T2 sequence (P07550 whole entry): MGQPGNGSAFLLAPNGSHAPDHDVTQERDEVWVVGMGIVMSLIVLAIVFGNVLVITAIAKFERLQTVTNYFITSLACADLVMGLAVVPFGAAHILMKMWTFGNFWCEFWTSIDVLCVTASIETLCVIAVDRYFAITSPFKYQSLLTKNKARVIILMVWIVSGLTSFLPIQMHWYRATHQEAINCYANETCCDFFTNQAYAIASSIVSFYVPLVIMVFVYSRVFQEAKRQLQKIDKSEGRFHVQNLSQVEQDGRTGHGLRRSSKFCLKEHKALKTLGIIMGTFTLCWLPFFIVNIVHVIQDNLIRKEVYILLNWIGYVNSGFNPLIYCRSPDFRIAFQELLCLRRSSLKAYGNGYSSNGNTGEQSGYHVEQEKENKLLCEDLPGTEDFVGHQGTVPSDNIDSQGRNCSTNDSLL
In short: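 H292 cells seeded overnight, pretreated 10 min with rolipram (300 μM final), then exposed to compounds 60 min at room temperature in HBSS/10 mM HEPES pH 7.4/5 mM glucose, 1% DMSO. Lysate cAMP quantified by AlphaScreen against a standard curve; four-parameter fit gives pEC50 and intrinsic activity relative to formoterol maximum.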

Adrenergic β2 [4] = target: T2, Adrenergic β2; assay: Adrenergic β2 mediated cAMP production in H292 cells, single concentration 1 μM; assay type: cell-based; conditions: NCI-H292, 1 μM compound, cAMP as percentage of the maximum response generated by 1E-07M formoterol, read-out: β2 % effect @1 uM
In short: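 H292 cells pretreated with rolipram (300 μM final) 10 min, then compound at 1 μM final, 1% DMSO, 60 min at room temperature in HBSS/10 mM HEPES pH 7.4/5 mM glucose. Lysate cAMP quantified by AlphaScreen against a standard curve, as % of maximal response to 1E-07M formoterol.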

T1 sequence (P20309 whole entry): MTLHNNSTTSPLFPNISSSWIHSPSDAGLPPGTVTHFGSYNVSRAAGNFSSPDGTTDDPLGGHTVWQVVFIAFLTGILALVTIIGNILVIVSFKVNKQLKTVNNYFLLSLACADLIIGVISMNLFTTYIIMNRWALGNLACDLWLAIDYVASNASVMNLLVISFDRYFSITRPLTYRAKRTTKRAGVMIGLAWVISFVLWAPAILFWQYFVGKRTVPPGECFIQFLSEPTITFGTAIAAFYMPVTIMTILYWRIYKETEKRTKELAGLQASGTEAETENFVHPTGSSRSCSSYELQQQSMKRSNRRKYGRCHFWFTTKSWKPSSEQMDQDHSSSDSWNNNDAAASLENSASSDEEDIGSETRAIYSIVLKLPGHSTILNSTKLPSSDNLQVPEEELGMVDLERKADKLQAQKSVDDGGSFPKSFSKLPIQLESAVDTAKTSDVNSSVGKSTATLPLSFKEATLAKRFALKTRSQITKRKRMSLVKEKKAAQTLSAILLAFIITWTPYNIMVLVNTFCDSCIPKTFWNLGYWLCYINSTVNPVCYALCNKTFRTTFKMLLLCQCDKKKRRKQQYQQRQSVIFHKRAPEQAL

SMILES	IC50 [1]	inhibition at 1 µM [2]	EC50 (Adrenergic β2 [3])	β2 Intrinsic Activity (Adrenergic β2 [3])	percent of formoterol maximum response at 1 µM (Adrenergic β2 [4])
CC(C)c1cc(C(=O)N2CCOC3(CCN(Cc4cccc(CCOCCC(=O)N(CCNCCc5ccc(O)c6c5OCC(=O)N6)C5CCCCC5)c4)CC3)C2)no1 [Example 147, N-Cyclohexyl-N-(2-(2-(5-hydroxy-3-oxo-3,4-dihydro-2H-benzo[b][1,4]oxazin-8-yl)ethylamino)ethyl)-3-(3-((4-(5-isopropylisoxazole-3-carbonyl)-1-oxa-4,9-diazaspiro[5.5]undecan-9-yl)methyl)phenethoxy)propanamide]	1.58 nM	99%	158 nM	1.0	107%
O=C1COc2c(CCNCCN(C(=O)CCOCCc3cccc(CN4CCC5(CC4)CN(C(=O)c4ccc(C(F)(F)F)cn4)CCO5)c3)C3CCCCC3)ccc(O)c2N1 [Example 149, N-Cyclohexyl-N-(2-(2-(5-hydroxy-3-oxo-3,4-dihydro-2H-benzo[b][1,4]oxazin-8-yl)ethylamino)ethyl)-3-(3-((4-(5-(trifluoromethyl)picolinoyl)-1-oxa-4,9-diazaspiro[5.5]undecan-9-yl)methyl)phenethoxy)propanamide]	0.501 nM	99%	126 nM	1.0	90%
Cc1ccn2cc(C(=O)N3CCOC4(CCN(Cc5cccc(CCOCCC(=O)N(CCNCCc6ccc(O)c7c6OCC(=O)N7)C6CCCCC6)c5)CC4)C3)nc2c1 [Example 150, N-Cyclohexyl-N-(2-(2-(5-hydroxy-3-oxo-3,4-dihydro-2H-benzo[b][1,4]oxazin-8-yl)ethylamino)ethyl)-3-(3-((4-(7-methylimidazo[1,2-a]pyridine-2-carbonyl)-1-oxa-4,9-diazaspiro[5.5]undecan-9-yl)methyl)phenethoxy)propanamide]	3.16 nM	99%	79.4 nM	0.5	104%
O=C1COc2c(CCNCCN(C(=O)CCOCCc3cccc(CN4CCC5(CC4)CN(C(=O)c4ccc6c(c4)OCO6)CCO5)c3)C3CCCCC3)ccc(O)c2N1 [Example 157, 3-(3-((4-(Benzo[d][1,3]dioxole-5-carbonyl)-1-oxa-4,9-diazaspiro[5.5]undecan-9-yl)methyl)phenethoxy)-N-cyclohexyl-N-(2-(2-(5-hydroxy-3-oxo-3,4-dihydro-2H-benzo[b][1,4]oxazin-8-yl)ethylamino)ethyl)propanamide]	1.58 nM	101%	63.1 nM	0.8	97%
Cc1ccoc1C(=O)N1CCOC2(CCN(Cc3cccc(CCOCCC(=O)N(CCNCCc4ccc(O)c5c4OCC(=O)N5)C4CCCCC4)c3)CC2)C1 [Example 159, N-Cyclohexyl-N-(2-(2-(5-hydroxy-3-oxo-3,4-dihydro-2H-benzo[b][1,4]oxazin-8-yl)ethylamino)ethyl)-3-(3-((4-(3-methylfuran-2-carbonyl)-1-oxa-4,9-diazaspiro[5.5]undecan-9-yl)methyl)phenethoxy)propanamide]	1.26 nM	100%	79.4 nM	0.9	87%
O=C1COc2c(CCNCCN(C(=O)CCOCCc3cccc(CN4CCC5(CC4)CN(C(=O)c4csc(CC(F)(F)F)n4)CCO5)c3)C3CCCCC3)ccc(O)c2N1 [Example 174, N-Cyclohexyl-N-(2-(2-(5-hydroxy-3-oxo-3,4-dihydro-2H-benzo[b][1,4]oxazin-8-yl)ethylamino)ethyl)-3-(3-((4-(2-(2,2,2-trifluoroethyl)thiazole-4-carbonyl)-1-oxa-4,9-diazaspiro[5.5]undecan-9-yl)methyl)phenethoxy)propanamide]	0.251 nM	100%	50.1 nM	1.0	88%
CCCCc1nc(C(=O)N2CCOC3(CCN(Cc4cccc(CCOCCC(=O)N(CCNCCc5ccc(O)c6c5OCC(=O)N6)C5CCCCC5)c4)CC3)C2)cs1 [Example 175, 3-(3-((4-(2-Butylthiazole-4-carbonyl)-1-oxa-4,9-diazaspiro[5.5]undecan-9-yl)methyl)phenethoxy)-N-cyclohexyl-N-(2-(2-(5-hydroxy-3-oxo-3,4-dihydro-2H-benzo[b][1,4]oxazin-8-yl)ethylamino)ethyl)propanamide]	0.316 nM	100%	63.1 nM	1.0	86%

Results, then the compound that gave them:

IC50 [1]	inhibition at 1 µM [2]	EC50 (Adrenergic β2 [3])	β2 Intrinsic Activity (Adrenergic β2 [3])	percent of formoterol maximum response at 1 µM (Adrenergic β2 [4])	SMILES
0.316 nM	101%	100 nM	1.0	101%	Cc1ccc(C(=O)N2CCOC3(CCN(Cc4cccc(CCOCCC(=O)N(CCNCCc5ccc(O)c6c5OCC(=O)N6)C5CCCCC5)c4)CC3)C2)s1 [Example 154, N-Cyclohexyl-N-(2-(2-(5-hydroxy-3-oxo-3,4-dihydro-2H-benzo[b][1,4]oxazin-8-yl)ethylamino)ethyl)-3-(3-((4-(5-methylthiophene-2-carbonyl)-1-oxa-4,9-diazaspiro[5.5]undecan-9-yl)methyl)phenethoxy)propanamide]
0.501 nM	100%	39.8 nM	1.0	97%	O=C1COc2c(CCNCCN(C(=O)CCOCCc3cccc(CN4CCC5(CC4)CN(C(=O)c4ccc6cccnc6n4)CCO5)c3)C3CCCCC3)ccc(O)c2N1 [Example 161, 3-(3-((4-(1,8-Naphthyridine-2-carbonyl)-1-oxa-4,9-diazaspiro[5.5]undecan-9-yl)methyl)phenethoxy)-N-cyclohexyl-N-(2-(2-(5-hydroxy-3-oxo-3,4-dihydro-2H-benzo[b][1,4]oxazin-8-yl)ethylamino)ethyl)propanamide]
2.51 nM	99%	79.4 nM	0.8	96%	O=C1COc2c(CCNCCN(C(=O)CCOCCc3cccc(CN4CCC5(CC4)CN(C(=O)c4cccc(Cl)c4)CCO5)c3)C3CCCCC3)ccc(O)c2N1 [Example 164, 3-(3-((4-(3-Chlorobenzoyl)-1-oxa-4,9-diazaspiro[5.5]undecan-9-yl)methyl)phenethoxy)-N-cyclohexyl-N-(2-(2-(5-hydroxy-3-oxo-3,4-dihydro-2H-benzo[b][1,4]oxazin-8-yl)ethylamino)ethyl)propanamide]
1 nM	100%	79.4 nM	1.1	99%	O=C1COc2c(CCNCCN(C(=O)CCOCCc3cccc(CN4CCC5(CC4)CN(C(=O)CCOc4ccccc4)CCO5)c3)C3CCCCC3)ccc(O)c2N1 [Example 165, N-Cyclohexyl-N-(2-(2-(5-hydroxy-3-oxo-3,4-dihydro-2H-benzo[b][1,4]oxazin-8-yl)ethylamino)ethyl)-3-(3-((4-(3-phenoxypropanoyl)-1-oxa-4,9-diazaspiro[5.5]undecan-9-yl)methyl)phenethoxy)propanamide]
0.316 nM	101%	100 nM	0.4	105%	O=C1COc2c(CCNCCN(C(=O)CCOCCc3cccc(CN4CCC5(CC4)CN(C(=O)[C@@H]4C[C@H]4c4ccccc4)CCO5)c3)C3CCCCC3)ccc(O)c2N1 [Example 167, N-Cyclohexyl-N-(2-(2-(5-hydroxy-3-oxo-3,4-dihydro-2H-benzo[b][1,4]oxazin-8-yl)ethylamino)ethyl)-3-(3-((4-((1R,2R)-2-phenylcyclopropanecarbonyl)-1-oxa-4,9-diazaspiro[5.5]undecan-9-yl)methyl)phenethoxy)propanamide]
